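How tested: cells in 96-well plates exposed to compound for 48 hours at five concentrations. Here, GI50 denotes the concentration required for 50% inhibition of growth. TGI denotes the concentration required for complete inhibition of growth.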
Experiments:
Assay in all cases: DTP human tumour cell line panel, 48 h
[1] = tested on: SK-OV-3 ovarian
[2] = tested on: TK-10 renal
[3] = tested on: A549 NSCLC
[4] = tested on: CAKI-1 renal
[5] = tested on: 786-0 renal
[6] = tested on: OVCAR-3 ovarian
[7] = tested on: M14 melanoma
[8] = tested on: MALME-3M melanoma
[9] = tested on: PC-3 prostate
[10] = tested on: SN12C renal

Row | SMILES | GI50 [1] | TGI [1] | GI50 [2] | TGI [2] | GI50 [3] | TGI [3] | GI50 [4] | TGI [4] | GI50 [5] | TGI [5] | GI50 [6] | TGI [6] | GI50 [7] | TGI [7] | GI50 [8] | TGI [8] | GI50 [9] | TGI [9] | GI50 [10] | TGI [10]
1 | C=CCN1CC(=O)N2[C@@H](Cc3ccc(O)cc3F)C(=O)N(Cc3cccc(N4CC(N5CCN(CC)CC5)C4)n3)C[C@@H]2N1C(=O)NCc1ccccc1 | 0.0345 µM | 0.244 µM | 0.16 µM | > 100 µM | 0.0412 µM | > 100 µM | 0.0507 µM | 0.504 µM | 0.173 µM | > 100 µM | 0.0328 µM | > 100 µM | 0.0445 µM | 19.6 µM | 0.0292 µM | 0.211 µM | 0.0359 µM | > 100 µM | 0.111 µM | > 100 µM
2 | COC(=O)c1cc2c(cc1Cl)SC1=NN(C)C(N(C)C)N1S2(=O)=O (stereo not drawn) | > 100 µM | > 100 µM | > 100 µM | > 100 µM | > 100 µM | > 100 µM | > 100 µM | > 100 µM | > 100 µM | > 100 µM | > 100 µM | > 100 µM | > 100 µM | > 100 µM | > 100 µM | > 100 µM | > 100 µM | > 100 µM | > 100 µM | > 100 µM
3 | Cc1cc(C)nc(SC2=C(Nc3cc(Cl)ccc3O)C(=O)N(Cc3ccccc3)C2=O)n1 | > 160 µM | > 160 µM | 53.9 µM | > 160 µM | 30.7 µM | > 160 µM | > 160 µM | > 160 µM | 14.7 µM | 85.2 µM | 18.8 µM | 53.2 µM | 48.4 µM | > 160 µM | 39.4 µM | 99.7 µM | 19.9 µM | 86.4 µM |  | 
4 | CCc1cccc(C)c1NC(=O)c1sc2nc3c(cc2c1N)C(=O)CCC3 | 0.541 µM | > 100 µM | 0.774 µM | 79.6 µM | 0.652 µM | > 100 µM | 0.537 µM | > 100 µM | 0.734 µM | > 100 µM | 0.375 µM | 2.74 µM | 0.43 µM | 25.8 µM | 0.685 µM | 98.8 µM | 0.454 µM | > 100 µM | 0.909 µM | > 100 µM
5 | O=C(O)c1cccc(C(=O)O)c1S(=O)Cc1ccccc1 (stereo not drawn) |  | > 100 µM |  | > 100 µM |  | > 100 µM |  | > 100 µM |  | > 100 µM |  | > 100 µM |  | > 100 µM |  | > 100 µM |  | > 100 µM |  | > 100 µM
6 | COc1ccc(/C=C(\C#N)n2nnc3c(F)cccc32)cc1 | 1.05 µM | > 90 µM | 2.73 µM | 29 µM | 0.78 µM | > 100 µM | 0.122 µM | > 100 µM | 0.607 µM | > 51.2 µM | 0.283 µM | 2.53 µM | 0.245 µM | 1.57 µM | 0.517 µM | > 100 µM | 0.381 µM | > 100 µM | 0.585 µM | > 100 µM
7 | Cc1ccc(/C(C#N)=C/c2cccc([N+](=O)[O-])c2)cc1 |  | > 100 µM |  | > 100 µM |  | > 100 µM |  | > 100 µM |  | > 100 µM |  | > 100 µM |  | > 100 µM |  | > 100 µM |  | > 100 µM |  | > 100 µM
8 | COC(=O)c1cncc(/C=C/c2c(C)cc(O)cc2C)c1 | 8.01 µM | 24.8 µM | > 25 µM | > 25 µM | > 17.5 µM | > 25 µM | > 16.2 µM | > 25 µM | 9.42 µM | > 25 µM | 10.1 µM | > 21.1 µM | 8.69 µM | 24.6 µM | 11.5 µM | > 25 µM | 12.2 µM | > 25 µM | 11.2 µM | > 25 µM
9 | O=C(CCCCCCN1CC(=O)N2[C@@H](c3ccc(Cl)c(Cl)c3)c3[nH]c4ccccc4c3C[C@H]2C1=O)NO | 4.58 µM | 9.81 µM | 3.51 µM | 10.2 µM | 4.99 µM | 13.6 µM | 3.43 µM | 8.71 µM | 4.63 µM | 9.39 µM | 1.62 µM | 6.57 µM | 4.22 µM | 14.5 µM | 2.7 µM | 14.8 µM | 2.39 µM | 10.7 µM | 4.33 µM | 14.5 µM
10 | CC1(C)CC(=O)C2=C(C1)OC(N)=C(c1nc(-c3ccccc3)cs1)C2c1ccc(Br)cc1 (stereo not drawn) | 102 µg/mL | > 150 µg/mL | 76.9 µg/mL | > 150 µg/mL | 53.1 µg/mL | > 150 µg/mL | > 150 µg/mL | > 150 µg/mL | 100 µg/mL | > 150 µg/mL | 59.7 µg/mL | > 150 µg/mL | 103 µg/mL | > 150 µg/mL | > 150 µg/mL | > 150 µg/mL | 50.9 µg/mL | > 150 µg/mL | 51.8 µg/mL | > 150 µg/mL
11 | CC1=C(CC(=O)c2cccc([N+](=O)[O-])c2)C(=O)c2ccccc2C1=O | 28.6 µM | 99.2 µM | 39.7 µM | 85.8 µM | 15.6 µM | 36.2 µM | 21.7 µM | > 100 µM | 14.8 µM | 35.4 µM | 2.82 µM | 9.34 µM | 6.66 µM | 22.3 µM | 4.95 µM | 18.3 µM | 7.14 µM | 63.2 µM | 2.61 µM | 8.39 µM
12 | COC(=O)CCCCC(=O)c1c(C)[nH]c(/C=C2\N=C(c3ccc[nH]3)C=C2OC)c1C | 2.25 µM | 4.4 µM | 2.06 µM | 6.38 µM | 1.25 µM | 3.28 µM | 1.03 µM | 2.49 µM | 0.437 µM | 1.61 µM | 0.88 µM | 2.24 µM | 0.289 µM | 0.952 µM | 0.746 µM | 2.16 µM | 0.47 µM | 1.88 µM | 1.1 µM | 2.47 µM
13 | O=C(CC1(O)C(=O)N(Cc2ccccc2)c2ccccc21)c1ccc(C(=O)NCC2CCC3(CC2)OOC2(CCCCC2)OO3)cc1 (stereo not drawn) | 6.57 µM | > 51.1 µM | 0.835 µM | 2.24 µM | 0.201 µM | 0.458 µM | 0.577 µM | 1.14 µM | 0.18 µM | 0.345 µM | 1.21 µM | 2.74 µM | 2.48 µM | 7.26 µM | 0.566 µM | 2 µM | 1.58 µM | 4.91 µM | 1.66 µM | 3.76 µM

From PubChem BioAssay (NCI)
